Read-outs that look alike come from different tables or passages of the source.
Tested on: LNCaP/AR cells
Assay: Inhibition of the proliferation of LNCap/AR cells (CCK-8)
Type: cell-based
Settings: read-out: LNCap/AR IC50
From the text: 1. Biological Assay of the Inhibition on the Proliferation of LNCap/AR Cells
(1) Experimental materials and instruments: LNCaP/AR cell line and 22RV1 cell line (provided by Sichuan Kangcheng Biotechnology Co., Ltd.) Fetal bovine serum FBS (Gibco, Cat. No. 10099-141) 0.01M PBS (Biosharp, Cat. No. 162262) RIPM1640 medium (Hyclone, Cat. No. 308090.01) Penicillin-Streptomycin (Hyclone, Cat. No. SV30010) Cell counting kit-8 (Signalway Antibody, Cat. No. CP002) DMSO (Sigma, Cat. No. D5879) Centrifuge Tube, 15 ml (Excell Bio, Cat. No. CS015-0001) Cell Culture Dish, (Excell Bio, Cat. No. CS016-0128) 96-well cell culture plate (Corning, Cat. No. 3599) Microplate reader (Thermo Multiskan MK3 type)
(2) Experimental Methods:
a. Preparation of Buffer Cell culture medium: RIPM1640 medium, 10% FBS, 1% Pen Strep: PBS buffer: PBS powder was dissolved in 2 L of ultrapure water and sterilized. b. Experimental Procedures 1) LNCaP/AR cells were subcultured in cell culture media, and then the cells in good growth condition were seeded in a 96-well plate at 80 μL/well (1000 cells/well), and cultured overnight in a 37° C., 5% CO2 cell incubator. 2) The drug was prepared into a 10 mM stock solution with dimethyl sulfoxide (DMSO). Prior to use, the stock solution was diluted in a ratio of […] with DMSO, and then diluted at a 3-fold gradient to obtain 9 serial concentrations. Then, each concentration of compound was further diluted in a ratio of 1:200 with the culture medium (to ensure that the DMSO concentration in the culture system was 0.1%), and two wells were set for each concentration. 20 μL of the diluted compound solution was added to the well of the cell culture (with a final concentration of 10 μM, 3.3 μM, 1.1 μM . . . ), and then the plate was gently tapped to thoroughly mix. In addition, the experiment included 3 negative control wells only containing cells and 3 blank control wells only containing culture medium (6 wells were each added with DMSO diluted in a ratio of 1:200 with 20 μL of culture medium). c. Result Detection: 1) After culturing for 6 days, 10 μL of CCK-8 was added to each well, and the plate was further incubated for 1 h in a 37° C., 5% CO2 cell incubator. 2) The absorbance (OD value) was measured at 450 nm with a multifunctional microplate reader. 3) The data was analyzed by the Dose-response-inhibition equation in the software GraphPad Prism5, and the IC50 value was obtained. 2. Biological assay of the inhibition on the proliferation of other drug-resistant prostate cancer cells

[1] = 144 h, LNCaP/AR cells, 6 days culture, CCK-8
[2] = LNCaP/AR cells, 6 days culture, CCK-8

Row | Compound | IC50 [1] | other results
1 | CC(=O)O[C@@H]1C[C@@H](C(=O)N[C@@H](C)c2ccc(-c3scnc3C)cc2)N(C(=O)[C@@H](NC(=O)COCC#CCN(c2ccc(-n3ccnc3)cc2)c2cc(-c3c(C)noc3C)ccc2C)C(C)(C)C)C1 [Compound 46, (3R,5S)-1-((S)-2-(2-((4-((4-(1H-imidazol-1-yl)phenyl)(5-(3,5-dimethylisoxazol-4-yl)-2-methylphenyl)amino)but-2-yn-1-yl)oxy)acetamido)-3,3-dimethylbutanol)-5-((S)-1-(4-methylthiazol-5-yl)phenyl)ethyl)carbamoyl)pyrrolidine-3-yl acetate] | – | IC50 (LNCaP/AR, 144 h): > 2000 nM
2 | CC(=O)O[C@@H]1C[C@@H](C(=O)N[C@@H](C)c2ccc(-c3scnc3C)cc2)N(C(=O)[C@@H](NC(=O)COCCCCCN(c2ccc(-n3ccnn3)cc2)c2cc(-c3c(C)noc3C)ccc2C)C(C)(C)C)C1 [Compound 90, (3R,5S)-1-((S)-2-(2-((5-((4-(1H-1,2,3-triazol-1-yl)phenyl)(5-(3,5-dimethylisoxazol-4-yl)-2-methylphenyl)amino)pentyl)oxy)acetylamino)-3,3-dimethylbutyryl)-5-(((S)-1-(4-(4-methylthiazol-5-yl)phenyl)ethyl)aminoformyl)pyrrolidinyl-3-yl acetate] | 101 to 500 nM | –
3 | CC(=O)O[C@@H]1C[C@@H](C(=O)N[C@@H](C)c2ccc(-c3scnc3C)cc2)N(C(=O)[C@@H](NC(=O)COC2CN(CCN(c3ccc(-n4ccnc4)c(Br)c3)c3cc(-c4c(C)noc4C)ccc3C)C2)C(C)(C)C)C1 [Compound 101, (3R,5S)-1-((S)-2-(2-((1-(2-((3-Bromo-4-(1H-imidazol-1-yl)phenyl)(5-(3,5-dimethylisozazol-4-yl)-2-methylphenyl)amino)ethyl)azetidin-3-yl)oxy)acetylamino)-3,3-dimethylbutyryl)-5-(((S)-1-(4-(4-methylthiazol-5-yl)phenyl)ethyl)carbamoyl)pyrrolidine-3-yl acetate] | > 2000 nM | –
4 | COc1ccc(N(CCCCCOCC(=O)N[C@H](C(=O)N2C[C@H](OC(C)=O)C[C@H]2C(=O)N[C@@H](C)c2ccc(-c3scnc3C)cc2)C(C)(C)C)c2cc(-c3c(C)noc3C)ccc2C)cc1 [Compound 56, (3R,5S)-1-((S)-2-(2-((5-((5-(3,5-dimethylisoxazol-4-yl)-2-methylphenyl)(4-methoxyphenyl)amino)pentyl)oxy)acetamido)-3,3-dimethylbutyryl)-5-((S)-1-(4-(4-methylthiazol-5-yl)phenyl)ethyl)carbamoyl)pyrrolidine-3-yl acetate] | – | IC50 [2]: 101 to 500 nM
5 | CC(=O)O[C@@H]1C[C@@H](C(=O)N[C@@H](C)c2ccc(-c3scnc3C)cc2)N(C(=O)[C@@H](NC(=O)COCCCCCN(c2ccc(-n3ccnc3)c(F)c2)c2cc(-c3c(C)noc3C)ccc2C)C(C)(C)C)C1 [Compound 13, (3R,5S)-1-((S)-2-(2-((5-((3-fluoro-4-(1H-imidazol-1-yl)phenyl)(5-(3,5-dimethylisoxazol-4-yl)-2-methylphenyl)amino)n-pentyl)oxy)acetylamino)-3,3-dimethylbutyryl)-5-(((S)-1-(4-(4-methylthiazol-5-yl)phenyl)ethyl)formylamino)pyrrolidinyl-3-acetate] | – | IC50 (LNCaP/AR, 144 h): > 2000 nM
6 | Cc1ccc(-c2c(C)noc2C)cc1N(CCCCCOCC(=O)N[C@H](C(=O)N1C[C@H](O)C[C@H]1C(=O)N[C@@H](C)c1ccc(-c2scnc2C)cc1)C(C)(C)C)c1ccc(-n2ccnc2)c(Cl)c1 [Compound 12, (2S,4R)-1-((S)-2-(2-((5-((3-chloro-4-(1H-imidazol-1-yl)phenyl)(5-(3,5-dimethylisoxazol-4-yl)-2-methylphenyl)amino)n-pentyl)oxy)acetylamino)-3,3-dimethylbutyryl)-4-hydroxy-N—((S)-1-(4-(4-methylthiazol-5-yl)phenyl)ethyl) pyrrolidinyl-2-formamide] | 101 to 500 nM | –
7 | Cc1ccc(-c2c(C)noc2C)cc1N(CC1CCN(CCC(=O)N[C@H](C(=O)N2C[C@H](O)C[C@H]2C(=O)N[C@@H](C)c2ccc(-c3scnc3C)cc2)C(C)(C)C)CC1)c1ccc(-n2ccnc2)c(Br)c1 [Compound 100, (2S,4R)-1-((S)-2-(3-(4-(((3-Bromo-4-(1H-imidazol-1-yl)phenyl)(5-(3,5-dimethylisoxazol-4-yl)-2-methylphenyl)amino)methyl)piperidin-1-yl)propionamide)-3,3-dimethylbutyryl)-4-hydroxy-N—((S)-1-(4-(4-methylthiazol-5-yl)phenyl)ethyl)pyrrolidine-2-formamide] | 501 to 2000 nM | –
8 | CCN(c1ccc(C#N)c(Cl)c1)c1cc(-c2nn(CCCCCOCC(=O)N[C@H](C(=O)N3C[C@H](O)C[C@H]3C(=O)N[C@@H](C)c3ccc(-c4scnc4C)cc3)C(C)(C)C)cc2C)ccc1C [Compound 2] | – | IC50 (LNCaP/AR, 144 h): > 2000 nM
9 | CC(=O)O[C@@H]1C[C@@H](C(=O)N[C@@H](C)c2ccc(-c3scnc3C)cc2)N(C(=O)[C@@H](NC(=O)COCCCCCN(c2ccc(-n3ccnc3)c(Br)c2)c2cc(-c3c(C)noc3C)cnc2C)C(C)(C)C)C1 [Compound 48, (3R,5S)-1-((S)-2-(2-((5-((3-bromo-4-(1H-imidazol-1-yl)phenyl)(5-(3,5-dimethylisoxazol-4-yl)-2-methylpyridin-3-yl)amino)pentyl)oxy)acetamido)-3,3-dimethylbutanol)-5-((S)-1-(4-methylthiazol-5-yl)phenyl)ethyl)carbamoyl)pyrrolidine-3-yl acetate] | 501 to 2000 nM | –
10 | CC(=O)O[C@@H]1C[C@@H](C(=O)N[C@@H](C)c2ccc(-c3scnc3C)cc2)N(C(=O)[C@@H](NC(=O)COCCCCCN(c2ccc(C#N)c(Cl)c2)c2cc(-c3c(C)noc3C)ccc2C)C(C)(C)C)C1 [Compound 3] | – | IC50 (LNCaP/AR, 144 h): 101 to 500 nM
11 | CC(=O)O[C@@H]1C[C@@H](C(=O)N[C@@H](C)c2ccc(-c3scnc3C)cc2)N(C(=O)[C@@H](NC(=O)COCCCCCN(c2ccc(-n3ccnc3)c(Br)c2)c2cc(-c3c(C)noc3C)ccc2C)C(C)(C)C)C1 [Compound 9, (3R,5S)-1-((S)-2-(2-((5-((3-bromo-4-(1H-imidazol-1-yl)phenyl)(5-(3,5-dimethylisoxazol-4-yl)-2-methylphenyl)amino)n-pentyl)oxy)acetylamino)-3,3-dimethylbutyryl)-5-(((S)-1-(4-(4-methylthiazol-5-yl)phenyl)ethyl)formylamino)pyrrolidinyl-3-acetate] | – | IC50 [2]: 501 to 2000 nM
12 | Cc1ccc(-c2c(C)noc2C)cc1N(CCC1CCN(CC(=O)N[C@H](C(=O)N2C[C@H](O)C[C@H]2C(=O)N[C@@H](C)c2ccc(-c3scnc3C)cc2)C(C)(C)C)CC1)c1ccc(-n2ccnc2)c(Br)c1 [Compound 24] | > 2000 nM | –
13 | CCN(c1ccc(C#N)c(Cl)c1)c1cc(-c2c(C)nn(CCCCCOCC(=O)N[C@H](C(=O)N3C[C@H](O)C[C@H]3C(=O)N[C@@H](C)c3ccc(-c4scnc4C)cc3)C(C)(C)C)c2C)ccc1C [Compound 1] | – | IC50 (LNCaP/AR, 144 h): > 2000 nM
14 | Cc1ccc(-c2c(C)noc2C)cc1N(CCCCCOCC(=O)N[C@H](C(=O)N1C[C@H](O)C[C@H]1C(=O)N[C@@H](C)c1ccc(-c2scnc2C)cc1)C(C)(C)C)c1ccc(Br)cc1 [Compound 26, (2S,4R)-1-((S)-2-(2-((5-((4-Bromophenyl)(5-(3,5-Dimethylisoxazol-4-yl)-2-methylphenyl)amino)pentyl)oxy)acetamido)-3,3-dimethylbutyryl)-4-hydroxy-N—((S)-1-(4-(4-methylthiazol-5-yl)phenyl)ethyl)pyrrolidine-2-formamide] | 101 to 500 nM | –
15 | Cc1ccc(-c2c(C)noc2C)cc1N(CCCCCOCC(=O)Nc1cccc2c1CN(C1CCC(=O)NC1=O)C2=O)c1ccc(C2(C#N)CC2)cc1 (centres unmarked) [Compound 144] | 101 to 500 nM | –
16 | CC(=O)O[C@@H]1C[C@@H](C(=O)N[C@@H](C)c2ccc(-c3scnc3C)cc2)N(C(=O)[C@@H](NC(=O)COCCOCCN(c2ccc(-n3ccnc3)c(Br)c2)c2cc(-c3c(C)noc3C)ccc2C)C(C)(C)C)C1 [Compound 54] | > 2000 nM | –
17 | CC(=O)O[C@@H]1C[C@@H](C(=O)N[C@@H](C)c2ccc(-c3scnc3C)cc2)N(C(=O)[C@@H](NC(=O)COCCCCCN(c2ccc(-n3cncn3)cc2)c2cc(-c3c(C)noc3C)ccc2C)C(C)(C)C)C1 [Compound 92, (3R,5S)-1-((S)-2-(2-((5-((4-(1H-1,2,4-triazol-1-yl)phenyl)(5-(3,5-dimethylisoxazol-4-yl)-2-methylphenyl)amino)pentyl)oxy)acetylamino)-3,3-dimethylbutyryl)-5-(((S)-1-(4-(4-methylthiazol-5-yl)phenyl)ethyl)aminoformyl)pyrrolidinyl-3-yl acetate] | 101 to 500 nM | –
